Assay results taken from the supplement of paper PMC11061612.

How the values were obtained:
Experiment in all cases: combination Emax (second highest fraction inhibited in the dose matrix, 72 h); higher = more inhibition; extreme values may be limits of the assay
[1] = tested on: 639-V (Bladder Carcinoma)
Method in brief: (§1)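 Cell lines in DMEM/F12 or RPMI with 10% FBS were plated in 1536-well plates, held 24 hours at 37°C, 5% CO2, then given two-drug dose matrices for 72 hours (DMSO typically 0.2%). Viability was read by CellTiter-Glo 2.0 luminescence and scaled as inhibition from 0 (vehicle wells) to 1 (blank wells). Combination Emax is the second-highest inhibition in the matrix; Bliss excess is observed combination effect minus expected EA + EB − EA·EB, EA and EB being single-agent effects.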

[2] = tested on: 8305C (Thyroid Gland Carcinoma)
Method in brief: as §1

[3] = tested on: CAPAN-1 (Pancreatic Carcinoma)
Method in brief: as §1

COLO-829 (Melanoma) = tested on: COLO-829 (Melanoma)
Method in brief: as §1

[4] = tested on: CTB-1 (B-Cell Non-Hodgkin's Lymphoma)
Method in brief: as §1

[5] = tested on: Hs-633T (Other Solid Carcinomas)
Method in brief: as §1

[6] = tested on: KARPAS-231 (B-Cell Non-Hodgkin's Lymphoma)
Method in brief: as §1

[7] = tested on: LU-139 (Small Cell Lung Carcinoma)
Method in brief: as §1

[8] = tested on: MHH-PREB-1 (B-Cell Non-Hodgkin's Lymphoma)
Method in brief: as §1

Mewo (Melanoma) = tested on: Mewo (Melanoma)
Method in brief: as §1

NCI-H2461 (Mesothelioma) = tested on: NCI-H2461 (Mesothelioma)
Method in brief: as §1

[9] = tested on: NCI-H747 (Colorectal Carcinoma)
Method in brief: as §1

[10] = tested on: PCI-30 (Head and Neck Carcinoma)
Method in brief: as §1

[11] = tested on: RKO (Colorectal Carcinoma)
Method in brief: as §1

SH-4 (Melanoma) = tested on: SH-4 (Melanoma)
Method in brief: as §1

[12] = tested on: SK-OV-3 (Ovarian Carcinoma)
Method in brief: as §1

[13] = tested on: SU-DHL-6 (B-Cell Non-Hodgkin's Lymphoma)
Method in brief: as §1

[14] = tested on: SUP-T1 (T-Lymphoblastic Leukemia)
Method in brief: as §1

[15] = tested on: SW626 (Colorectal Carcinoma)
Method in brief: as §1

[16] = tested on: TE-4 (Esophageal Squamous Cell Carcinoma)
Method in brief: as §1

SMILES | combination Emax [1] | combination Emax [2] | combination Emax [3] | combination Emax (COLO-829 (Melanoma)) | combination Emax [4] | combination Emax [5] | combination Emax [6] | combination Emax [7] | combination Emax [8] | combination Emax (Mewo (Melanoma)) | combination Emax (NCI-H2461 (Mesothelioma)) | combination Emax [9] | combination Emax [10] | combination Emax [11] | combination Emax (SH-4 (Melanoma)) | combination Emax [12] | combination Emax [13] | combination Emax [14] | combination Emax [15] | combination Emax [16]
CN(CCO)CC[C@H](CSc1ccccc1)Nc1ccc(S(=O)(=O)NC(=O)c2ccc(N3CCC([C@@H](O)c4ccccc4-c4ccc(Cl)cc4)CC3)cc2)cc1S(=O)(=O)C(F)(F)F [AZD4320] + C1CN(CCC1(C(=O)N[C@@H](CCO)C2=CC=C(C=C2)Cl)N)C3=NC=NC4=C3C=CN4 [Capivasertib] (first compound max 1 µM, 7x7, partner max 3 µM) | 0.154 | 0.506 | 0.161 | 0.118 | 0.295 | 0.298 | 1 | 0.912 | 0.173 | 0.204 | 0.429 | 0.387 | 0.191 | 0.272 | 0.129 | 0.369 | 1 | 0.505 | 0.643 | 0.511
Cc1cc2ncnn2cc1Nc1ncc2c(n1)n(C1CCOCC1)c(=O)n2C [AZD7648] + C[C@@H]1COCCN1C2=NC(=NC(=C2)C3(CC3)[S@](=N)(=O)C)C4=C5C=CNC5=NC=C4 [AZD6738] (first compound max 10 µM, 7x7, partner max 10 µM) | 0.404 | 0.609 | 0.495 | 0.286 | 0.802 | 0.855 | 0.837 | 0.396 | 0.863 | 0.5 | 0.71 | 0.408 | 0.686 | 0.865 | 0.335 | 0.638 | 0.613 | 0.744 | 0.619 | 0.531
CCc1c2c(nc3ccc(O)cc13)-c1cc3c(c(=O)n1C2)COC(=O)[C@]3(O)CC [SN-38] + CN(C)CCCOc1ccc(-c2ccc3ncc4c(c3c2)n(C2CCOCC2)c(=O)n4C)cn1 [AZD0156] (first compound max 0.3 µM, 7x7, partner max 1 µM) | 1 | 0.572 | 0.781 | 0.497 | 0.859 | 0.838 | 1 | 0.627 | 0.701 | 0.248 | 0.639 | 0.408 | 0.692 | 0.91 | 0.27 | 0.517 | 0.987 | 0.853 | 0.428 | 0.402
CCN(CCO)CCCOc1ccc2c(Nc3cc(CC(=O)Nc4cccc(F)c4)[nH]n3)ncnc2c1 [AZD2811] + O=C(c1cc(Cc2n[nH]c(=O)c3ccccc23)ccc1F)N1CCN(C(=O)C2CC2)CC1 [Olaparib] (first compound max 1 µM, 7x7, partner max 10 µM) | 0.237 | 0.169 | 0.338 | 0.254 | 0.515 | 0.441 | 0.576 | 0.307 | 0.125 | 0.226 | 0.278 | 0.232 | 0.265 | 0.276 | 0.265 | 0.226 | 0.365 | 0.528 | 0.213 | 0.145
C=CCn1c(=O)c2cnc(Nc3ccc(N4CCN(C)CC4)cc3)nc2n1-c1cccc(C(C)(C)O)n1 [AZD1775] + O=C(c1cc(Cc2n[nH]c(=O)c3ccccc23)ccc1F)N1CCN(C(=O)C2CC2)CC1 [Olaparib] (first compound max 1 µM, partner max 10 µM) | 0.333 | 0.506 | 0.516 | 0.174 | 0.879 | 0.657 | 0.972 | 0.636 | 0.76 | 0.382 | 0.649 | 0.501 | 0.374 | 0.719 | 0.492 | 0.547 | 0.85 | 0.879 | 0.573 | 0.366
CC1(C)CCC(CN2CCN(c3ccc(C(=O)NS(=O)(=O)c4ccc(NCC5CCOCC5)c([N+](=O)[O-])c4)c(Oc4cnc5[nH]ccc5c4)c3)CC2)=C(c2ccc(Cl)cc2)C1 [Venetoclax] + C[C@@H](Nc1cc(F)cc(F)c1)c1cc(C(=O)N(C)C)cc2c(=O)cc(N3CCOCC3)oc12 [AZD8186] (first compound max 1 µM, 7x7, partner max 3 µM) | 0.321 | 0.441 | 0.178 | 0.243 | 0.288 | 0.186 | 0.792 | 0.279 | 0.21 | 0.434 | 0.447 | 0.344 | 0.19 | 0.113 | 0.192 | 0.433 | 1 | 0.461 | 0.127 | 0.0248
Cc1cc2ncnn2cc1Nc1ncc2c(n1)n(C1CCOCC1)c(=O)n2C [AZD7648] + CCN(CCO)CCCOc1ccc2c(Nc3cc(CC(=O)Nc4cccc(F)c4)[nH]n3)ncnc2c1 [AZD2811] (first compound max 10 µM, 7x7, partner max 1 µM) | 0.278 | 0.451 | 0.299 | 0.196 | 0.697 | 0.431 | 0.517 | 0.397 | 0.343 | 0.259 | 0.468 | 0.306 | 0.318 | 0.409 | 0.345 | 0.367 | 0.51 | 0.641 | 0.25 | 0.137
Cc1c2c(nn1C)CSCc1cc(n(C)n1)CSc1cc(c3ccccc3c1)OCCCc1c(C(=O)O)n(C)c3c-2c(Cl)ccc13 [AZD5991] + Cc1cc2ncnn2cc1Nc1ncc2c(n1)n(C1CCOCC1)c(=O)n2C [AZD7648] (first compound max 1 µM, 7x7, partner max 10 µM) | 0.298 | 0.432 | 0.267 | 0.144 | 0.472 | 0.391 | 1 | 0.243 | 0.175 | 0.283 | 0.422 | 0.392 | 0.323 | 0.364 | 0.284 | 0.483 | 1 | 0.466 | 0.224 | 0.517
COc1cccc(OCCCN)c1-c1cc(Nc2cnc(C#N)cn2)n[nH]1 [Prexasertib] + Cc1cc2ncnn2cc1Nc1ncc2c(n1)n(C1CCOCC1)c(=O)n2C [AZD7648] (first compound max 1 µM, 7x7, partner max 10 µM) | 0.362 | 0.724 | 0.585 | 0.398 | 0.922 | 0.948 | 0.984 | 0.504 | 0.947 | 0.516 | 0.693 | 0.396 | 0.721 | 0.901 | 0.709 | 0.842 | 0.629 | 0.821 | 0.75 | 0.597
CN(CCO)CC[C@H](CSc1ccccc1)Nc1ccc(S(=O)(=O)NC(=O)c2ccc(N3CCC([C@@H](O)c4ccccc4-c4ccc(Cl)cc4)CC3)cc2)cc1S(=O)(=O)C(F)(F)F [AZD4320] + CCN(CCO)CCCOc1ccc2c(Nc3cc(CC(=O)Nc4cccc(F)c4)[nH]n3)ncnc2c1 [AZD2811] (first compound max 1 µM, 7x7, partner max 1 µM) | 0.303 | 0.386 | 0.336 | 0.196 | 0.503 | 0.54 | 1 | 0.914 | 0.2 | 0.303 | 0.174 | 0.414 | 0.284 | 0.194 | 0.181 | 0.178 | 0.958 | 0.545 | 0.825 | 0.0998
